# Source: patent US4256757A, “1-Substituted imidazoles for inhibition of thromboxane synthetase” (Ono Pharmaceutical Co., Ltd., priority 1978, dated 1981)
# Structures can show the parent of a compound that is named as a salt.
# How the values were obtained:
# [1] = tested on: arachidonic acid-induced blood platelet aggregation in platelet-rich plasma of rats; assay: inhibition of arachidonic acid-induced blood platelet aggregation in platelet-rich plasma; type: cell-based; conditions: Rattus norvegicus, read-out: concentration producing a 50% inhibition of arachidonic acid-induced blood platelet aggregation, in comparison with controls
# [2] = tested on: arachidonic acid-induced sudden deaths of rabbits; assay: inhibitory effect on arachidonic acid-induced sudden deaths; type: in vivo; conditions: oral administration, 100 mg/kg animal body weight
# [3] = biological target: T1, thromboxane synthetase from rabbit platelet microsomes (Oryctolagus cuniculus, UniProt G1TAZ9); assay: inhibition of thromboxane synthetase (conversion of prostaglandin H2 into thromboxane B2); type: biochemical
# T1 construct: thromboxane synthetase from rabbit platelet microsomes; from tissue; host or cells: rabbit platelet microsomes
# T1 sequence (G1TAZ9 1-530): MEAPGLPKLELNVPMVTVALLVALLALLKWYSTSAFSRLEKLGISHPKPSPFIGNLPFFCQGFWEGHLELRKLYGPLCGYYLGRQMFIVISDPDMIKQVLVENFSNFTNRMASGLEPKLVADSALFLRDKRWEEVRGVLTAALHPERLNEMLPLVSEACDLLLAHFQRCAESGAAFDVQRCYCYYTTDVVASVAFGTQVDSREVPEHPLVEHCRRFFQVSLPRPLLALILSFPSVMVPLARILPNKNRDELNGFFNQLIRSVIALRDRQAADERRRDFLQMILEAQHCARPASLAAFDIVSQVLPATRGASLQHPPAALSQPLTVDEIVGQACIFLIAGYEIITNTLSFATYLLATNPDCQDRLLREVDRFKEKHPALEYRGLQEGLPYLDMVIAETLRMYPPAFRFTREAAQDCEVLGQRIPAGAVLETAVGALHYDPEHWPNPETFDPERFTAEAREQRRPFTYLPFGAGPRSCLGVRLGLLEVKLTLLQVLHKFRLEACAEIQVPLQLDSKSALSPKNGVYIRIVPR
# acute toxicity test = conditions: mouse, in vivo; ICR-stain male mice (7 weeks old), intravenous administration
# thromboxane synthetase [4] = conditions: reported in Prostaglandins, 13(4), 611(1977); cited from earlier work
# thromboxane synthetase [5] = assay: inhibitory action for thromboxane synthetase (prior art); type: biochemical; conditions: prior-art compound, comparison in words
# Text: However, since their inhibitory action for thromboxane synthetase is weak, these compounds are hardly applicable as practically effective medicines.
# On the other hand, N-(6-methoxycarbonylhexyl)imidazole has already been synthesized by P. Matthias et al, and publicly known [Monatsch Chem., 108(5), 1059(1977)].
Compound,IC50 [1] [µg/mL],IC50 [3] [nM],other results
Cl.O=C(O)CCCCC#CCn1ccnc1 [1-(7-carboxy-2-heptynyl)imidazole hydrochloride],0.21,–,inhibitory effect on arachidonic acid-induced sudden deaths [2]: inhibitory effect
CC(C)(CCCCCCn1ccnc1)C(=O)O.Cl [1-(7-carboxy-7-methyloctyl)imidazole hydrochloride],0.091,–,inhibitory effect on arachidonic acid-induced sudden deaths [2]: inhibitory effect; LD50 (acute toxicity test): 330 mg/kg
Cn1ccnc1 [1-methylimidazole],–,–,inhibitory action for thromboxane synthetase (thromboxane synthetase [4]): weak
COC(=O)CCCCCCn1ccnc1 [N-(6-methoxycarbonylhexyl)imidazole],–,–,inhibitory effect on thromboxane synthetase compared with imidazole or 1-methylimidazole (thromboxane synthetase [5]): stronger inhibitory effect
O=C(O)CCCC/C=C\Cn1ccnc1 [(Z)-1-(7-carboxy-2-heptenyl)imidazole hydrochloride],–,16,–
CC(CCCCCCn1ccnc1)C(=O)O.Cl (racemic) [1-[(7RS)-7-carboxyoctyl]imidazole hydrochloride],0.17,–,inhibitory effect on arachidonic acid-induced sudden deaths [2]: inhibitory effect; LD50 (acute toxicity test): 540 mg/kg
c1c[nH]cn1 [imidazole],–,–,inhibitory action for thromboxane synthetase (thromboxane synthetase [4]): weak
Cl.O=C(O)C#CCCCCCn1ccnc1 [1-(7-carboxy-6-heptynyl)imidazole hydrochloride],4,–,–
"CC(C)(CCCCCCC(=O)O)n1ccnc1.Cl [1-(7-carboxy-1,1-dimethylheptyl)imidazole hydrochloride]",0.18,71,–

# Second part, led by results:
IC50 [1] [µg/mL],IC50 [3] [nM],Compound,other results
–,90,CCCCC(CCCn1ccnc1)C(=O)OCC (racemic) [1-[(4RS)-4-ethoxycarbonyloctyl]imidazole],–
0.052,1000,CCOC(=O)C(C)CCCCCCn1ccnc1 (racemic) [1-[(7RS)-7-ethoxycarbonyloctyl]imidazole],–
0.53,130,CC(CCCCCn1ccnc1)CC(=O)O.Cl (racemic) [1-[(6RS)-7-carboxy-6-methylheptyl]imidazole hydrochloride],–
–,200,O=C(O)/C=C\CCCCCn1ccnc1 [(Z)-1-(7-carboxy-6-heptenyl)imidazole hydrochloride],–
0.44,30,CCOC(=O)C(C)(C)CCCCCCn1ccnc1 [1-(7-ethoxycarbonyl-7-methyloctyl)imidazole],–
